Experimental findings from patent US20030232801A1, “Identification of compounds for the treatment or prevention of proliferative diseases” (priority 2001, published 2003) are described below.

A short description of series [1]: Cellular toxicity, MTS cell viability, 6D-2 cells. The series is classed as cell-based, human. The settings on record: Homo sapiens, MCF7, MTS viability. How it is done:
(§1) 6D-2 cells (MCF-7 human breast cancer cells stably transfected with luciferase linked to the 5′ and 3′UTRs of human HER2) were added to 96-well plates at 7500 cells per well in 200 μL medium and incubated for 24 hours at 100% humidity, 5% CO2, and 37° C. Compounds were diluted from DMSO stock solutions into medium and were added at various concentrations. The 6D-2 cells were incubated for 16 hours at which time the volume of medium in each well was reduced to 100 μL using a plate washer. 20 μL of MTS cell viability reagent (Promega, Madison, Wis.) was then added to each well, and the plates were incubated for 1-4 hours. A plate containing wells with 100 μL medium plus MTS reagent was prepared to determine the background reading. The plates were read on the Wallac 2 plate reader (PerkinElmer Life Science, Boston, Mass.) at 490 nm. Percent viability was calculated as (O.D. of compound treated cells−background O.D.)/(O.D. of DMSO treated cells−background O.D.)×100. MT-4 cells (adult human T-cell leukemia cells) were plated at 1.5×10^5 cells per well in 200 μL medium and incubated for at least one hour before the addition of compounds. The cells were incubated for 5 days at 100% humidity, 5% CO2, and 37° C. Cell viability was determined as described for 6D-2 cells.
(§2) Compounds of the invention containing a pyrrolidine substituent were tested for toxicity to cancerous and non-cancerous cells. 6D-2 cellular activity is representative of potency as an antitumor agent. MT-4 cellular activity is representative of general toxicity. A high IC50 for MT-4 cells and a low IC50 for 6D-2 cells is indicative of a compound of potential therapeutic use in treating or preventing proliferative diseases, such as cancer.

In another series the test system is 6D-2 cancer cell line. Put plainly: Viability of 6D-2 cells on administration of MES 51151 (FIG. 3). In kind it is cell-based, human. The method, then: (§3) FIG. 3 is a graph of the effect of administration of MES 51151 on the viability of 6D-2 cells and PBMCs.
(§4) Toxicity of the transfected cells increased with increased concentration of MES 51151 administered to the cells (FIG. 3, showing the percent viable 6D-2 cells compared to control cells). MES 51151 was administered to primary peripheral blood mononuclear cells (PBMCs) to test for its effect on cell toxicity. MES 51151 was not toxic to the PBMCs (FIG. 3, showing the percent viable PBMCs compared to control cells). The EC50 of MES 51151 when administered to the 6D-2 cancer cell line was less than 100 nM, yet MES 51151 was not toxic to PBMCs even when administered at a concentration of 10 μM. Therefore, the therapeutic index of MES 51151 is at least 100, and may be even higher. […] Thus, this compound may potentially be employed for the treatment or prevention of proliferative diseases, including cancer.

For series [2], the system named is luciferase reporter operatively linked to HER2 5′ and 3′UTRs. The experiment in a line: HER2 UTR/luciferase reporter screening assay in stably transfected MCF7 (6D-2) cells. In kind it is cell-based, human. The settings on record: HER2 5′ and 3′UTR/luciferase reporter. How it is done: The HER2 UTR/reporter nucleic acid stably transfected cell system described above was used to identify compounds that either increased or decreased the level of HER2 translation efficiency. Small molecules from a library of candidate compounds (MES library, Message Pharmaceuticals, Malvern, Pa., containing, for example, small molecules from a commercially available Nanoscale Combinatorial Synthesis Inc. (Mountain View, Calif.) library) were administered to 6D-2 cells containing the stably transfected luciferase reporter nucleic acid sequence operatively linked to HER2 5′ and 3′UTRs to identify compounds that modulate HER2 translation efficiency. Each candidate compound was administered at a concentration of 10 μM.
After 16 hours of exposure to the compound, the level of luciferase protein activity was measured in candidate compound-treated cells containing the luciferase construct only, or in cells containing the luciferase/UTRs that were not treated with the candidate compound, or are treated with the candidate compound vehicle only (control cells), and compared to activity levels in candidate compound-treated cells containing the luciferase construct with the UTRs (test cells). […]
On the technique in general: In a reporter assay the amount or activity of a reporter protein is the signal.

For series [3], the system named is primary peripheral blood mononuclear cells (PBMCs). Put plainly: Viability of PBMCs on administration of MES 51151 (FIG. 3). In kind it is cell-based. The settings on record: concentration of 10 μM. The method, then:
as §3, §4

Series [4] deals with MT-4 cells (adult human T-cell leukemia cells). Put plainly: Cellular toxicity, MTS cell viability, MT-4 cells. The series is classed as cell-based. The settings on record: Homo sapiens, MT4, 120 h, 5 day, MTS viability. The method, then:
as §1, §2

Take `CC(=O)Nc1ccc(NC2=C(N3CCCC3)C(=O)c3ccccc3C2=O)cc1` [Example 2]: the values for the IC50 in series [1] and in series [4] were 250 nM and 80 nM, respectively. Also, the Therapeutic index result in the series on 6D-2 cancer cell line (6D-2 EC50 versus non-toxic concentration in PBMCs) is given as “at least 100”. Besides, the EC50 (usually the concentration that produces a half-maximal response) in the series on 6D-2 cancer cell line (Homo sapiens, 6D-2 cells, toxicity (percent viable cells compared to control), read-out: EC50 when administered to the 6D-2 cancer cell line) was less than 100 nM. Moreover, the Luciferase activity result in series [2] is on record as “reduced luciferase activity through toxicity”. For the same compound, the “Toxicity to PBMCs” value in series [3] was “not toxic”.
